Experimental data as given in patent US20110110918A1, “ROLE OF (DE)ACETYLATION IN COUNTERACTING PROTEIN AGGREGATION” (Rijksuniversiteit Groningen, priority 2008, published 2011).
Entries after “also recorded” stand apart in the source; their conditions may differ.

Columns and labels:
Assay type in all cases: cell-based, Human
[1] = tested on: HDAC-6; test: Western blot of acetylated tubulin as test for HDAC inhibitor functionality; settings: control cells or cells expressing DnaJB8
Description: (§1) HDAC inhibition. […] Cell extracts prepared 36 hours after treatment were processed for filter trap essays and western Notting as described before. Increase in acetylated tubulin and histones as detected by western Notting was used as test for functionality.
Western blot analysis. […] Proteins were transferred onto nitrocellulose membranes and probed with monoclonal anti-GFP antibody GL-8 (Clontech) at a 1:5000 dilution and monoclonal anti-V5 antibody (Invitrogen) at a 1:5000 dilution. GAPDH was used a loading control and was detected with a monoclonal antibody (RDI Research Diagnostics) at 1:1000 dilution. Blots were incubated with HRP-conjugated anti-mouse secondary antibody (Amersham) at 1:5000 dilution, and visualization was made using enhanced chemiluminescence and Hyperfilm (ECL, Amersham).

[2] = tested on: DNAJB8; test: Mass spectrometry of immunoprecipitated DNAJB8 from TSA-treated cells; settings: TSA-treated cells versus control sample, in-gel digestion
Description: Immunoprecipitation. Cells from a 35 mm dish were washed twice with PBS and lysed in 500 μl RIPA (25 mM Tris-HCl pH 7.6, 150 mM NaCl, 1% NP-40, 1% sodium deoxycholate, 0.1% SDS). Lysis was completed by passing the extracts five times through a 21-gauge needle. Subsequently, cell extracts were centrifuged twice at 10,000 G for 10 minutes at 4° C. and the supernatant transferred. Lysates were cleared with agarose A/G beads for 1 hour at 4° C. in a rotator. In the mean time, 0.5 μg V5 anti-body was incubated with […] agarose A/G plus agarose beads (Santa Cruz Biotechnology) and 50 μl RIPA for 1 hour at 4° C. Thereafter, samples were centrifuged at 1000 g for 30 seconds and the supernatant was transferred to a new tube together with 50 μl of the pre-incubated antibody and incubated for 1 more hour in a rotator. Thereafter, the beads were washed twice with RIPA and twice with PBS. After the final wash, 30 μl of RIPA was added together with 30 μl Laemmli sample buffer and boiled for 5 minutes. 10 μl of the extract was loaded and subjected for Western blot analysis.
Mass Spectometry. […]
The digested material was analyzed by nanoLC-MS/MS on an Ultimate 3000 system (Dionex, Amsterdam, The Netherlands) connected on-line with a LTQ-Orbitrap-XL mass spectrometer (ThermoFisher Scientific, San Jose, Calif.). […]

[3] = tested on: HDQ119 aggregation; test: Filter trap assay of HDQ119 aggregation in HEK-293 cells cotransfected with EYFP-HDQ119 and DnaJB6 or DnaJB8; settings: for ability of DnaJB8 and DnaJB6 to suppress HDQ119 aggregation in presence of HDAC inhibitor: HEK-293 expressing DnaJB6 or DnaJB8 (Tet on), Trichostatin A 100 and 500 nM, Tubacin 3 and 5 μM, Niltubacin 3 and 5 μM
Description: Cell culture and transient infections. Flp-In T-Rex HEK293 cells (Human embryonic kidney 293) stably expressing the tetracycline (tet) repressor were obtained from Invitrogen. Cells were cultured in DMEM (Gibco) supplemented with 10% foetal bovine serum (Sigma) and 100 units/ml penicillin and 100 μg/ml streptomycin (Invitrogen). 5 μg/ml Blasticidine (Sigma) and 100 μg/ml of Zeocin (Invitrogen) were added to the cultures. Cultures were maintained at 37° C. and 5% CO2 in a humidified incubator. For transient transfections, cells were grown to 50-60% confluence in 35 mm-diameter dishes coated with 0.001% of poly-L-lysine (Sigma) and on coated coverslips for confocal microscopy analyses. Cells were transfected with a total of 1 μg of DNA using Lipofectamine (Gibco) according to the manufacturer instructions.
Plasmids. The construction of pHDQ119-EYFP driving the expression of a fragment of exon-1 of huntingtin fused to the enhanced yellow fluorescent protein was previously described (Rujano et al., 2006). The construction of the tetracycline inducible HSP overexpression plasmids is described by Hageman et al. (manuscript in preparation). Briefly, first the V5 sequence containing a Kozak initiation codon and lacking a stop codon was inserted in pcDNA5/FRT/TO by oligo cloning. Subsequently, the coding sequence of each gene was amplified and the PCR products where purified, cleaved with the respective enzymes and ligated in frame in the pcDNA5/FRT/TO-V5 vector cleaved with the same set of enzymes. Presence of the correct insert was verified using DNA sequencing. Expression of the proteins at the expected molecular mass was verified by Western Not analysis against the V5-tag.
as §1
Cell extracts and sample preparation. 24 hours after transfection cells were recovered by trypsinization, pelleted and resuspended in 1 ml of PBS. The cell suspension was centrifuged at 6000 rpm for 5 min at RT and the pellet was resuspended in 75 μl of RIPA buffer containing 2% SDS supplemented with protease inhibitors and sonicated. Protein content was determined with the DC protein essay (Bio-RAD). Western Not samples were prepared at a final concentration of 1 μg/μl in SDS-PAGE loading buffer and heated for 5 min at 100° C. Filter trap samples were prepared at a final concentration of 100 ng/μl, 20 ng/μl and 4 ng/μl in FTA buffer (10 mM Tris-Cl pH 8.0, 150 mM NaCl and 50 mM dithiothreitol)+2% SDS and heated for 5 min at 100° C. Samples were used immediately or kept frozen at −20° C.
Filter trap assay. Filter trap assay was performed based on the protocol described by Carra et al. (2005). Briefly, 10, 2 and 0.4 μg of protein extracts were applied onto a 0.2 μm pore Cellulose Acetate membrane prewashed with FTA+0.1% SDS. Mild suction was applied and the membrane was washed 3 times with the same buffer. […] For quantitative analysis, relative intensity of the bands was measured using GelPro Analyzer 4.5 gel analyzer software.

Molecule	tubulin acetylation (cellular content of acetylated tubulin) [1]	acetylated DNAJB8 peptides (K61, K216, K223) detected by mass spectrometry [2]	DnaJB8 and DnaJB6 activity on HDQ119 aggregation ([3]; 0.5 μM TSA)	ability of DnaJB8 and DnaJB6 to suppress HDQ119 aggregation in presence of HDAC inhibitor [3]	HDQ119 aggregation in cells transfected with the empty vector ([3]; empty plasmid (FRT TO), HEK-293, different concentrations of TSA)	suppression of poly-Q huntingtin (HDQ119) aggregation by overexpressed DnaJB8 variant ([3]; Tet on, 24 h after cotransfection, filter trap 10, 2 and 0.4 ug protein/slot)
CC(/C=C/C(=O)NO)=C\[C@@H](C)C(=O)c1ccc(N(C)C)cc1 [TSA, Trichostatin A]	increases the cellular content of acytelated Tubulin; also recorded: equally effective in increasing tubulin acetylation	3 peaks in the TSA-treated samples that were absent in the control sample	completely annihilated DnaJB8 and DnaJB6 activity	but not after HDAC inhibition with TSA; also recorded: stronly reduced; also recorded: concentration dependent loss of the ability of DnaJB8 and DnaJB6 to reduce HQ119 aggregation	slightly enhanced HDQ119 aggregation	
O=C(CCCCCCC(=O)Nc1ccc([C@H]2O[C@@H](CSc3nc(-c4ccccc4)c(-c4ccccc4)o3)C[C@@H](c3ccc(CO)cc3)O2)cc1)NO [Tubacin]	increases the cellular content of acytelated Tubulin; also recorded: equally effective in increasing tubulin acetylation			did not result in inhibition of DnaJB8 and DnaJB6 activity		
wild type DnaJB8: member of the Hsp40 family, chaperone counteracting protein aggregation; V5-tagged, tet-inducible overexpression (protein, UniProt Q8NHS0 1-232, looked up, V5 tag, member of the Hsp40 family, chaperone counteracting protein aggregation; V5-tagged, tet-inducible overexpression) DnaJ homolog subfamily B …: MANYYEVLGVQASASPEDIKKAYRKLALRWHPDKNPDNKEEAEKKFKLVSEAYEVLSDSKKRSLYDRAGCDSWRAGGGASTPYHSPFDTGYTFRNPEDIFREFFGGLDPFSFEFWDSPFNSDRGGRGHGLRGAFSAGFGEFPAFMEAFSSFNMLGCSGGSHTTFSSTSFGGSSSGSSGFKSVMSSTEMINGHKVTTKRIVENGQERVEVEEDGQLKSVTVNGKEQLKWMDSK						substantially suppressed aggregation of poly-Q huntingtin
